Test system: subjects with manifest HD, chorea
Test: ARC-HD open-label, single-arm study (Rollover and Switch cohorts)
Assay type: in vivo, human
Source text: In a second clinical trial, a method for converting patients with adequate control of chorea with tetrabenazine to deutetrabenazine treatment was implemented. Alternatives for Reducing Chorea in Huntington Disease (ARC-HD) was an open-label, single-arm study in which subjects with manifest HD who were receiving FDA-approved doses of tetrabenazine for the treatment of chorea or had successfully completed First-HD were invited to participate. The study thus comprised two cohorts. […] Other key inclusion criteria for the study included: diagnosed with manifest HD, as indicated by characteristic motor examination features; a documented expanded cytosine adenine guanine (CAG) repeat (≥37) and Total Functional Capacity (TFC) score ≥5 at or before Screening; able to ambulate without assistance for at least 20 yards ([…] devices such as walker or cane permitted); and subject has a reliable caregiver who interacts with the subject on a daily basis, oversees study drug administration, assures attendance at study visits, and participates in evaluations, as required. Key exclusion criteria included serious untreated or undertreated psychiatric illness (e.g., depression) at Screening or Baseline; concomitant dopamine receptor antagonists, dopamine agonists, levodopa, reserpine, N-methyl-D-aspartate receptor antagonists, or monoamine oxidase inhibitors within 30 days of Screening or Baseline; and score ≥11 on the depression subscale of the Hospital Anxiety and Depression Scale (HADS), a score of ≥11 on the Swallowing Disturbance Questionnaire (SDQ), or a Unified Parkinson's Disease Rating Scale (UPDRS) dysarthria score of ≥3 at Screening or Baseline. The guidance for investigators on conversion of subjects from stable doses of tetrabenazine to deutetrabenazine in the ARC-HD Switch study was designed to minimize the risk that dose conversion would result in either loss of efficacy or increased adverse events. The conversion method applied was based on modeling and simulation of Phase 1 pharmacokinetic data for deutetrabenazine and tetrabenazine. The objective of the pharmacokinetic analysis was to identify an initial dosing regimen of deutetrabenazine predicted to provide exposure at steady state of the active α and β metabolites that was less than or equal to the predicted AUC at steady state of the active alpha and beta metabolites of tetrabenazine, but with a lower Cmax. Subjects in the Switch cohort completed a full screening evaluation. […] Subjects received existing tetrabenazine regimen through midnight of Day 0 and switched to their assigned deutetrabenazine regimen the next morning (Day 1 of the study). […] The investigator, in consultation with the subject and caregiver, determined when an adequate level of chorea control had been achieved. If a subject experienced a “clinically significant” adverse event attributable to deutetrabenazine, the investigator determined if a dose reduction or suspension was necessary. […] The deutetrabenazine dose for these subjects was titrated from a starting dose of 6 mg per day to a dose that controlled chorea and was well tolerated. For both cohorts, oral tablets at strengths of 6 mg, 9 mg, and 12 mg were used. Doses of 12 mg and higher were administered in two divided doses approximately 10 hours apart. All study treatment regimens were administered orally with meals. The maximum total daily dose of deutetrabenazine was set at 72 mg per day, unless the subject was receiving a strong CYP2D6 inhibitor (e.g., paroxetine), in which case the maximum total daily dose was 36 mg. Subjects attended regular clinic visits to evaluate safety and establish an optimal dose. The investigator, in consultation with the subject and caregiver, determined when an adequate level of chorea control was achieved; the dose of DTBZ could be increased on a weekly basis until there was adequate control of chorea, the subject experienced a protocol defined clinically significant adverse event, or the maximal allowable dose was reached. […]

## [2H]C([2H])([2H])Oc1cc2c(cc1OC([2H])([2H])[2H])C1CC(=O)C(CC(C)C)CN1CC2 (stereo not drawn) [deutetrabenazine, (RR, SS)-1,3,4,6,7,11b-hexahydro-9,10-di(methoxy-d3)-3-(2-methylpropyl)-2H-benzo[a]quinolizin-2-one]
Rollover Cohort
  subjects who experienced AEs: 39 (52.0%) n (%)
  subjects who experienced serious AEs: Three
  subjects with an AE that led to a dose reduction or dose suspension: Five
Rollover Cohort (N = 75)
  TEAE Anxiety: 3 (4.0) n (%)
  TEAE Constipation: 3 (4.0) n (%)
  TEAE Depression: 8 (10.7) n (%)
  TEAE Diarrhoea: 4 (5.3) n (%)
  TEAE Disorientation: 0 n (%)
  TEAE Dry mouth: 3 (4.0) n (%)
  TEAE Fall: 10 (13.3) n (%)
  TEAE Fatigue: 3 (4.0) n (%)
  TEAE Insomnia: 6 (8.0) n (%)
  TEAE Irritability: 3 (4.0) n (%)
  TEAE Nasopharyngitis: 2 (2.7) n (%)
  TEAE Sleep disorder: 3 (4.0) n (%)
  TEAE Somnolence: 6 (8.0) n (%)
  TEAE Vomiting: 3 (4.0) n (%)
Rollover Cohort, Day 1 through Week 8
  subjects who experienced AEs: 45.3%
Rollover Cohort, Week 2
  TMC mean (SD) decrease from baseline: 1.9 (3.0) units
  Total Maximal Chorea Score, Mean (SD) Change from Baseline: −1.9 (2.95)
  Total Maximal Chorea Score, Mean (SD) Score: 10.1 (3.41)
  Total Motor Score, Mean (SD) Change from Baseline: −3.9 (6.67)
  Total Motor Score, Mean (SD) Score: 32.4 (15.23)
  mean decrease in TMS from baseline: 3.9 units
Rollover Cohort, Week 4
  Total Maximal Chorea Score, Mean (SD) Change from Baseline: −2.5 (3.21)
  Total Maximal Chorea Score, Mean (SD) Score: 9.8 (3.69)
  Total Motor Score, Mean (SD) Change from Baseline: −5.9 (7.88)
  Total Motor Score, Mean (SD) Score: 32.1 (16.84)
Rollover Cohort, Week 8
  Total Maximal Chorea Score, Mean (SD) Change from Baseline: −4.5 (3.34)
  Total Maximal Chorea Score, Mean (SD) Score: 7.9 (3.91)
  Total Motor Score, Mean (SD) Change from Baseline: −8.3 (8.58)
  Total Motor Score, Mean (SD) Score: 31.0 (18.07)
Rollover Cohort, Week 8 through the visit cut-off date
  subjects who experienced AEs: 43.2%
Rollover Cohort, Week 15
  TMC mean (SD) decrease from baseline: 4.5 (5.0) units
  Total Maximal Chorea Score, Mean (SD) Score: 7.9 (4.05)
  Total Motor Score, Mean (SD) Change from Baseline: −8.0 (8.41)
  Total Motor Score, Mean (SD) Score: 30.5 (17.70)
  mean decrease in TMS from baseline: 8.0 units
Rollover Cohort, Week 15, listed as DTBZ
  Total Motor Score, Mean (SD) Change from Baseline: −8.0
Rollover Cohort, of the 39 subjects with AEs
  subjects with AEs assessed as mild or moderate in intensity: 36 (92.3%) n (%)
Rollover and Switch Cohorts
  tolerability: generally well tolerated
Switch Cohort
  subjects who experienced at least one AE: 21 (56.8%) n (%)
  subjects who experienced serious AEs: Two
  subjects with an AE that led to a dose reduction or dose suspension: four
  withdrawal from the study due to an AE: no subjects withdrew
Switch Cohort (N = 37)
  TEAE Anxiety: 3 (8.1) n (%)
  TEAE Constipation: 2 (5.4) n (%)
  TEAE Diarrhoea: 2 (5.4) n (%)
  TEAE Disorientation: 2 (5.4) n (%)
  TEAE Dry mouth: 2 (5.4) n (%)
  TEAE Fall: 3 (8.1) n (%)
  TEAE Fatigue: 1 (2.7) n (%)
  TEAE Insomnia: 1 (2.7) n (%)
  TEAE Irritability: 2 (5.4) n (%)
  TEAE Nasopharyngitis: 2 (5.4) n (%)
  TEAE Sleep disorder: 0 n (%)
  TEAE Somnolence: 9 (24.3) n (%)
  TEAE Vomiting: 1 (2.7) n (%)
Switch Cohort, Week 1
  Total Maximal Chorea Score, Mean (SD) Score: 11.76 (5.11)
  Total Motor Score, Mean (SD) Change from Baseline: −2.14 (5.414)
  Total Motor Score, Mean (SD) Score: 36.35 (18.043)
Switch Cohort, Week 4
  Total Maximal Chorea Score, Mean (SD) Score: 11.86 (5.23)
  Total Motor Score, Mean (SD) Change from Baseline: −1.85 (8.419)
  Total Motor Score, Mean (SD) Score: 37.14 (19.516)
Switch Cohort, Week 8
  Total Maximal Chorea Score, Mean (SD) Change from Baseline: −1.9
  Total Maximal Chorea Score, Mean (SD) Score: 10.10 (5.56)
  Total Motor Score, Mean (SD) Score: 34.58 (18.268)
Switch Cohort, Week 8, listed as DTBZ
  Total Motor Score, Mean (SD) Change from Baseline: −3.7
Switch Cohort, Week 15
  Total Maximal Chorea Score, Mean (SD) Score: 10.87 (5.99)
  Total Motor Score, Mean (SD) Change from Baseline: −1.93 (10.910)
  Total Motor Score, Mean (SD) Score: 35.00 (22.984)
Switch Cohort, including first week after conversion from tetrabenazine
  adverse events of chorea or worsening chorea: no adverse events of chorea or worsening chorea
Switch Cohort, of the 21 subjects with AEs
  subjects with AEs assessed as mild to moderate in intensity: 20 (95.2%) n (%)
Patients switched from tetrabenazine to deutetrabenazine (FIG. 7)
  mean change from baseline in swallowing disturbance (questionnaire): trend toward improvement in swallowing
Through Week 28
  overall analysis of the safety scales (UHDRS, SDQ, UPDRS dysarthria, BARS, HADS, ESS, C-SSRS, MoCA): no increased risk
